Results from US20180078576A1, “SULPHATED XYLANS FOR TREATMENT OR PROPHYLAXIS OF RESPIRATORY DISEASES” (Paradigm Biopharmaceuticals Limited, priority 2007, published 2018).

Tests used:
[1] = system: male C57Bl/6J mice exposed to cigarette smoke; test: Mouse model of emphysema/COPD, acute cigarette smoke exposure; type: in vivo; details: PPS inhaled 30 minutes before
Procedure: A mouse model of emphysema was used. Acute and chronic exposure of mice to cigarette smoke lead to lung responses that in part mimic the inflammatory and structural changes observed in COPD. In this model male C57Bl/6J mice are subjected to acute and chronic smoke exposure, with normal room air being the control situation. In the acute study mice were exposed to either room air or to the smoke of five cigarettes (approximately 12 mg of tar and 0.9 mg of nicotine) for 20 minutes. In the chronic study mice were exposed to either room air or to the smoke of three cigarettes/day for 5 days/week for 6 months. The 4 groups of mice were then further divided so that mice within each group also received PPS via an inhaled route.
In the acute exposure groups of mice pentosan polysulfate was given 30 minutes before exposure to cigarette smoke. Assessment of the efficacy of the drug for mice in the acute exposure groups involved assessment of trolox equivalent anti-oxidant capacity of the bronchoalveolar lavage fluid (BALF) at the end of smoke exposure. The BALF was examined for cytokines and chemokines that are associated with an inflammatory response. The levels of these agents were determined at 4 hours after exposure and at 24 hours after cigarette smoke exposure. A range of cytokines and chemokines was measured. […] A differential cell count of the cells in the BALF was also determined.

[2] = system: guinea pigs sensitized with ovalbumin (OVA) and challenged intranasally with OVA; test: Allergic rhinitis model in the guinea pig (OVA); type: in vivo
Procedure: An allergic rhinitis model in the guinea pig was used. The guinea pigs are sensitized to ovalbumin (OVA) twice (on days 0 and 7) by an intraperitoneal injection of 0.5 ml saline containing 100 mg Al(OH)3 and 2 μg OVA. Three weeks after the last sensitization, animals are anaesthetized and the exposure of the nasal cavity to allergen is performed by dropping OVA solution at 20 mg/ml into bilateral nasal cavities. For the negative control the animals receive sensitization and challenge with saline. The animals are pretreated with either vehicle or drug (pentosan polysulfate or Budesonide) 30 min prior to intranasal instillation of OVA. Vehicle or drugs are administered, 25 μl-50 μl/nostril. A comparison of the pentosan polysulfate with Budesomde, as the reference compound, is included. Animals are terminated and all parameters measured eight hours after the provocation.
The nasal mucosal barrier permeability is assessed by measuring the leakage of protein-rich and non-sieved plasma into the nasal cavities. The amount of extravasated plasma is indicated as nasal lavage levels of total protein or albumin. Nasal lavage fluid is collected by gently rinsing the nasal cavities with phosphate buffered saline. The cells in this fluid are centrifuged and resuspended in phosphate buffered saline and counted using a semiautomated haematology analyzer. The cell composition of the nasal lavage is determined after a cytospin and staining with May Grynwald Giemsa.

[3] = molecular target: T1, IL-5 (Homo sapiens, UniProt P05113); test: IL-5 dependent Ba/F-IL-5 cell proliferation (luciferase); type: cell-based; details: dose-response, FIG. 4
T1 construct: made in house; host or cells: baculovirus expression system (from the general materials paragraph)
T1 sequence (P05113 20-134): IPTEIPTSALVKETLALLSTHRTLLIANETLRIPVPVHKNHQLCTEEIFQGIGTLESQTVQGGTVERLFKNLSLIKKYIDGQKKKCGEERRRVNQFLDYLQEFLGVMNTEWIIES
Procedure: PPS inhibited the proliferation of an IL-5 responsive cell line. This occurs at very low doses and is not due to a toxic effect of the PPS as other similarly sulfated polysaccharides have no affect in this assay. These experiments are performed with the IL-5 responsive cells, Ba/F-IL-5. The Ba/F-IL-5 cells were derived from the Ba/F3 cell line.
The Ba/F3 cell line was transformed to be both IL-5 dependent and to express luciferase by co-transfection of the cells with pGL3 control vector (Promega, USA) and pEE6 hcmv-IL-5Rα. The control vector, pGL3 expresses a modified luciferase under the direct control of the SV40 promoter and enhancer, but contains no selectable marker. To prepare pEE6 hcmv-hIL-5Rα a full length human IL-5 receptor α chain (hIL-5R-α) was cloned by RT PCR from HL60 cells. The preparation of the Ba/F-IL-5 cells has been described by Coombe et al, Journal of Immunological Methods 215: 145-150, 1998. […]
After transfection, positive transfectants are selected in 3 μg/ml puromycin. […] The cells are counted with a Coulter Z2 Particle Counter and Size Analyzer (Coulter Electronics, England) and routinely 1.6×10^4 cells are added to microplate wells that contain either no IL-5 (negative control) or various dilutions of IL-5. When the effect of PPS, or other sulfated polysaccharides is to be measured, the wells also contain various concentrations of these molecules. […]

Inhibition of IL-5 dependent Ba/F-IL-5 cell proliferation (in words) [3]: effective inhibitor
Substance: Pentosan polysulfate [PPS]
Cellular infiltrate into BALF [1]: decreased
Numbers of neutrophils in BALF [1]: significantly attenuated
Leukocyte infiltration into nasal lavage fluid (total white cell numbers) ([2]; 8 hours after intranasal OVA challenge, FIG. 12): inhibited leukocyte infiltration at all the concentrations tested
Protein content of nasal lavage fluid (plasma exudation) ([2]; 8 hours after intranasal OVA challenge, drug intranasal 30 min before, FIG. 11): significantly reduced
Cellular infiltrate in nasal lavage fluid ([2]; drugs at 5 mg/kg, FIG. 13): markedly reduced
